20 molecules from PubChem BioAssay (NCI) can be followed below.

Structures are written as SMILES. Several values for one entry are separate records, joined by “and”; a condition that tells them apart may be missing. Identical values can stand only once.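 Each compound was tested at five concentrations against cells in 96-well plates for 48 hours. Abbreviation: GI50, concentration required for 50% inhibition of growth. TGI: concentration producing complete growth inhibition.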

Some test systems named below: ACHN renal; CAKI-1 renal; HCC-2998 colon; IGROV1 ovarian; NCI-H226 lung; OVCAR-3 ovarian; SF-539 CNS; U251 CNS; NCI-H522 lung.
Holding throughout (experiment): inhibition of tumour cell growth, NCI panel, 48 h

With `Cc1nn2c(nc1=O)sc1ccc3ccccc3c12`, the TGI in the experiment with ACHN renal, with CAKI-1 renal, in the experiment on HCC-2998 colon, with IGROV1 ovarian, in the experiment on NCI-H226 lung and with OVCAR-3 ovarian was over 100 µM throughout. Also, the TGI with SF-539 CNS and in the experiment on U251 CNS was over 100 µM in each case.

As to `C(=N\Nc1ccccc1)/c1nc2ccccc2nc1/C=N/Nc1ccccc1`, the TGI in the experiment with ACHN renal worked out at 30.6 µM; with CAKI-1 renal it was 21.4 µM; in the experiment on HCC-2998 colon, 25.3 µM; in the experiment with IGROV1 ovarian, 21.5 µM; in the experiment with NCI-H226 lung, 34.3 µM; with NCI-H522 lung, 35.9 µM. In addition, the TGI was determined as 31.9 µM in the experiment on OVCAR-3 ovarian and 30.8 µM in the experiment with SF-539 CNS.

`N#CCCCCCOCCOCCOCCOCCOCCCCCC#N`: the TGI in the experiment with ACHN renal, in the experiment with CAKI-1 renal, with HCC-2998 colon, in the experiment on IGROV1 ovarian, with NCI-H226 lung and in the experiment on NCI-H522 lung was over 100 µM each time. Also, the TGI in the experiment with OVCAR-3 ovarian and in the experiment with U251 CNS was over 100 µM each time.

In the case of `O=C(NCc1cccnc1)C1COc2cc(-c3cc(=O)c4ccccc4o3)ccc2O1` (centres undefined), the TGI is over 72.9 µM with ACHN renal; over 84.3 µM in the experiment on CAKI-1 renal; over 100 µM in the experiment with HCC-2998 colon; over 100 µM with IGROV1 ovarian; over 57.1 µM with NCI-H226 lung; over 100 µM with NCI-H522 lung. For the same molecule, the TGI was over 100 µM in the experiment on OVCAR-3 ovarian, 16.4 µM with SF-539 CNS and over 100 µM in the experiment on U251 CNS.

With `CCCCCCCCCCCC(=O)N1CCN(C(C)=O)CC1`, the GI50 was 62.1 µM with ACHN renal; 19.9 µM with CAKI-1 renal; 14.8 µM with HCC-2998 colon; 18.8 µM in the experiment with IGROV1 ovarian; 27.9 µM in the experiment on NCI-H226 lung; 17.4 µM in the experiment on NCI-H522 lung. The GI50 is 27.6 µM with OVCAR-3 ovarian, 18 µM in the experiment with SF-539 CNS and 50.5 µM in the experiment on U251 CNS. Also, the TGI was over 100 µM with ACHN renal; 38.9 µM in the experiment on CAKI-1 renal; 28.1 µM in the experiment with HCC-2998 colon; 42.5 µM in the experiment on IGROV1 ovarian; 77.3 µM in the experiment on NCI-H226 lung; 38.4 µM in the experiment on NCI-H522 lung. In addition, the TGI with OVCAR-3 ovarian was 95 µM; in the experiment on SF-539 CNS it was 32.4 µM; in the experiment with U251 CNS, over 100 µM.

As for `COc1ccc(NC(=O)CC/C(CC(=O)c2ccco2)=N/NC(N)=S)cc1`, the TGI in the experiment with ACHN renal, in the experiment with CAKI-1 renal, in the experiment with HCC-2998 colon, in the experiment with IGROV1 ovarian, with NCI-H226 lung and with NCI-H522 lung was over 100 µM each time. Besides, the TGI in the experiment with OVCAR-3 ovarian, in the experiment on SF-539 CNS and in the experiment with U251 CNS was over 100 µM in each case.

On to `CC1(Br)CC2OC3(Br)C=CC(C)(O)C2(CC1=O)C3(C)C` (centres undefined), for which the TGI in the experiment with ACHN renal, in the experiment on CAKI-1 renal, in the experiment with HCC-2998 colon, in the experiment with IGROV1 ovarian, in the experiment on NCI-H226 lung and in the experiment with NCI-H522 lung was over 100 µM in each case. Besides, the TGI in the experiment with OVCAR-3 ovarian, in the experiment with SF-539 CNS and in the experiment on U251 CNS was over 100 µM in each case.

With `CC[C@@]1(O)C(=O)OCc2c1cc1n(c2=O)Cc2cc3cccc([N+](=O)[O-])c3nc2-1`, the GI50 in the experiment on ACHN renal is 0.322 µM; in the experiment with HCC-2998 colon, 4.92 µM; in the experiment on IGROV1 ovarian it was 1.96 µM; with NCI-H226 lung, 0.552 µM; in the experiment on NCI-H522 lung, 1.04 µM; in the experiment with OVCAR-3 ovarian it was 4.92 µM. Further, the GI50 in the experiment with SF-539 CNS is 0.478 µM; with U251 CNS it was 0.312 µM. Moreover, the TGI came out at 3.01 µM with ACHN renal; 31.8 µM with HCC-2998 colon; 14.9 µM with IGROV1 ovarian; 6.49 µM with NCI-H226 lung; 23.3 µM in the experiment on NCI-H522 lung; 43.5 µM in the experiment on OVCAR-3 ovarian. The TGI in the experiment on SF-539 CNS was found to be 2.89 µM; in the experiment with U251 CNS it was 3.07 µM.

In the case of `CCN1C(=O)N(CC)C2C1NN=c1s/c(=C\c3ccco3)c(=O)n12` (centres undefined), the GI50 in the experiment with ACHN renal was 0.818 µM; in the experiment with CAKI-1 renal, 0.468 µM; in the experiment with HCC-2998 colon it was 1.98 µM; with IGROV1 ovarian it was 1.16 µM; in the experiment on NCI-H522 lung it was 0.33 µM; in the experiment with OVCAR-3 ovarian it was 0.334 µM. For the same molecule, the values for the GI50 with SF-539 CNS and in the experiment with U251 CNS were 0.402 µM and 0.576 µM, respectively. Besides, the TGI is over 100 µM with ACHN renal; over 89.7 µM with CAKI-1 renal; over 100 µM with HCC-2998 colon; over 100 µM in the experiment on IGROV1 ovarian; over 100 µM in the experiment on NCI-H226 lung; 6.48 µM in the experiment with SF-539 CNS. The TGI in the experiment on U251 CNS is over 100 µM.

Regarding `CCOC(=O)NC/C=C/COC1CCCCO1` (centres undefined), the TGI with ACHN renal, with CAKI-1 renal, in the experiment with HCC-2998 colon, with IGROV1 ovarian, in the experiment on NCI-H226 lung and in the experiment with NCI-H522 lung was over 100 µM throughout. Further, the TGI with SF-539 CNS and with U251 CNS was over 100 µM throughout.

As to `Cc1cc(C)n(-c2ccnc3cc(Cl)ccc23)n1`, the TGI in the experiment with ACHN renal, with HCC-2998 colon, in the experiment with IGROV1 ovarian, with NCI-H226 lung, in the experiment on OVCAR-3 ovarian and in the experiment with SF-539 CNS was over 100 µM throughout. In the experiment on U251 CNS, this molecule had a TGI of over 100 µM.

For `CCCCNC(=O)C1C(=O)N(CCCC)C(=O)/C1=N\N` (centres undefined), the TGI in the experiment with ACHN renal, with CAKI-1 renal, in the experiment on HCC-2998 colon, in the experiment on IGROV1 ovarian, in the experiment on NCI-H226 lung and in the experiment on NCI-H522 lung was over 100 µM each time. For the same molecule, the TGI with OVCAR-3 ovarian, in the experiment on SF-539 CNS and in the experiment with U251 CNS was over 100 µM each time.

For the molecule `Nc1nc(Cl)cc(NCC(O)CO)n1` (centres undefined), the TGI in the experiment on HCC-2998 colon, in the experiment on IGROV1 ovarian, with NCI-H226 lung, with OVCAR-3 ovarian, in the experiment on SF-539 CNS and in the experiment on U251 CNS was over 100 µM throughout.

Turning to `COc1ccc2c(c1)[nH]c(=O)c1c3ccccc3cn21`, the GI50 is 0.125 µM with ACHN renal; 0.0355 µM in the experiment on CAKI-1 renal; 0.0183 µM in the experiment with HCC-2998 colon; 0.0734 µM and < 0.0114 µM with IGROV1 ovarian; 0.0597 µM in the experiment with NCI-H522 lung; 0.0223 µM in the experiment with OVCAR-3 ovarian. Moreover, the GI50 in the experiment on SF-539 CNS was 0.0228 µM; in the experiment with U251 CNS, 0.0436 µM. The TGI was 1.83 µM and 6.41 µM with ACHN renal; 1.97 µM and 5.38 µM in the experiment on CAKI-1 renal; 0.0492 µM in the experiment on HCC-2998 colon; 2.27 µM and 16 µM in the experiment on IGROV1 ovarian; 2.28 µM and 1.48 µM in the experiment on NCI-H522 lung; 0.0652 µM in the experiment on OVCAR-3 ovarian. Moreover, the TGI is 0.0704 µM and 0.207 µM in the experiment with SF-539 CNS; 1.52 µM and 4.44 µM in the experiment with U251 CNS.

Turning to `CC(N)(/C=C/c1ccccc1)C(=O)O` (centres undefined), the TGI in the experiment with ACHN renal, with CAKI-1 renal, in the experiment on IGROV1 ovarian, in the experiment with NCI-H226 lung, in the experiment with NCI-H522 lung and in the experiment on OVCAR-3 ovarian was over 100 µM in each case. Also, the TGI in the experiment on SF-539 CNS and in the experiment on U251 CNS was over 100 µM in each case.

With `O=c1c2ccccc2nc(/C=C(\O)c2ccncc2)n1-c1ccc(Cl)cc1`, the TGI with ACHN renal, in the experiment on CAKI-1 renal, with NCI-H226 lung, in the experiment on NCI-H522 lung, in the experiment with OVCAR-3 ovarian and in the experiment on U251 CNS was over 100 µM in each case.

In the case of `O=C(OC1CCC2OOC1O2)c1ccc([N+](=O)[O-])cc1` (centres undefined), the TGI in the experiment on ACHN renal, in the experiment on CAKI-1 renal, in the experiment with HCC-2998 colon, in the experiment with IGROV1 ovarian, with NCI-H226 lung and in the experiment on NCI-H522 lung was over 100 µM in each case. Besides, the TGI in the experiment on OVCAR-3 ovarian, in the experiment on SF-539 CNS and in the experiment on U251 CNS was over 100 µM in each case.

Take `CCOC(=O)C(N=C(c1ccccc1)c1ccccc1)N(C(=O)OC(C)(C)C)C(=O)OC(C)(C)C` (centres undefined): the TGI in the experiment on ACHN renal, with CAKI-1 renal, with HCC-2998 colon, in the experiment with IGROV1 ovarian, in the experiment on NCI-H226 lung and in the experiment with NCI-H522 lung was over 100 µM in each case. The TGI with OVCAR-3 ovarian, in the experiment with SF-539 CNS and in the experiment with U251 CNS was over 100 µM throughout.

`CCCNCC(=O)O[C@]1(CC)C(=O)OCc2c1cc1n(c2=O)Cc2cc3ccccc3nc2-1`: the TGI amounted to 0.233 µM in the experiment with ACHN renal; 4.36 µM with HCC-2998 colon; 4.68 µM with IGROV1 ovarian; 0.331 µM with NCI-H226 lung; 1.63 µM in the experiment on NCI-H522 lung; 2.63 µM in the experiment with OVCAR-3 ovarian. Besides, the values for the TGI with SF-539 CNS and in the experiment on U251 CNS were 0.136 µM and 0.244 µM, respectively.

As to `CCC(O)C1Cc2c(C)cc3c(c2O1)C(=O)c1ccccc1C3=O` (centres undefined), the TGI is over 100 µM in the experiment on ACHN renal; over 100 µM with CAKI-1 renal; over 100 µM in the experiment on HCC-2998 colon; over 100 µM in the experiment on IGROV1 ovarian; over 100 µM in the experiment on NCI-H226 lung; 51.6 µM with NCI-H522 lung. The TGI with OVCAR-3 ovarian and in the experiment with U251 CNS was over 100 µM throughout.
